The values that follow come from patent publication US10077309B2, “Compositions and methods for targeting of the surfactant protein A receptor” (The Penn State Research Foundation, priority 2014, dated 2018).

This experiment relates to IAV infection of macrophages / influenza binding to SP-R210. It is filed as cell-based, influenza A virus.

As for “desialylated SP-A: desialylated surfactant protein A”, the “competition with influenza virus for binding to the receptor SP-R210” value was “compete for influenza binding to the same receptor”. The “block of infection of macrophages with IAV” value (flow cytometry) is on record as “blocks infection of macrophages with IAV”.
“SP-A: human surfactant protein A isolated from therapeutic lung lavage of alveolar proteinosis patients”: the “competition with influenza virus for binding to the receptor SP-R210” value is given as “competitively inhibits binding of the influenza virus to the receptor”.
